Reference: patent US20250171432A1, “COMPOUNDS AND METHODS OF USE” (Tango Therapeutics, Inc., priority 2022, published 2025)

How the values were obtained:
Assay type in all cases: cell-based
[1] = system: SDMA (PRMT5 activity) in HAP1 MTAP-intact cell line; assay: SDMA in-cell western assay, HAP1 MTAP-intact; conditions: Homo sapiens, HAP1, 24 h, SDMA in-cell western, HAP1 MTAP-intact cells, 24 hours compound incubation
[2] = system: HAP1 MTAP-deleted cell line; assay: Viability assay (CellTiter-Glo), HAP1 MTAP-deleted; conditions: Homo sapiens, 168 h, HAP1 MTAP-deleted cells, 7 days
How it was run: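 HAP1 MTAP-deleted and MTAP-intact cells seeded, then dosed next day (n=3, 0.2% DMSO) and grown 7 days. Viability by CellTiter-Glo luminescence, expressed as % of DMSO control per cell line.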

[3] = system: SDMA (PRMT5 activity) in HAP1 MTAP-deleted cell line; assay: SDMA in-cell western assay, HAP1 MTAP-deleted; conditions: for IC50 / IC90: Homo sapiens, SDMA in-cell western, HAP1 MTAP-deleted cells, 24 hours compound incubation; for Hap1 MTAP intact/deleted ratio: ratio of SDMA IC50 in HAP1 MTAP-intact to HAP1 MTAP-deleted cell line

Compound	IC50 [1] [nM]	IC50 [3] [nM]	IC90 [3] [nM]	IC50 [2] [nM]	Hap1 MTAP intact/deleted ratio [3]
CCc1cc(NC(=O)C(=O)N2C[C@@H](C)CC[C@@H]2c2ccc3cn(CCN(C)C)nc3c2)cnc1N [Compound 38, N-(6-amino-5-ethyl-3-pyridyl)-2-oxo-2-[(2R,5S)-2-[2-[2-(dimethylamino)ethyl]indazol-6-yl]-5-methyl-1-piperidyl]acetamide]	> 50	< 5	< 75	< 100	B (“B” indicates an IC50 ratio greater than or equal to 15 fold but lower than 30 fold)
CCc1cc(NC(=O)C(=O)N2C[C@@H](C)CC[C@@H]2c2cccc(N3CCC(N(C)C)CC3)c2)cnc1N [Compound 9, N-(6-amino-5-ethylpyridin-3-yl)-2-((2R,5S)-2-(3-(4-(dimethylamino)piperidin-1-yl)phenyl)-5-methylpiperidin-1-yl)-2-oxoacetamide]	> 50	< 5	< 75	< 100	A (“A” indicates an IC50 ratio greater than or equal to 30 fold)
COc1ncc(NC(=O)C(=O)N2C[C@@H](C)CC[C@@H]2c2ccc3sc([C@@H]4C[C@@H]5CN(C)C[C@@H]5C4)nc3c2)cc1C(N)=O (single isomer, unassigned) [Compound 82]	> 50	< 5	< 75	< 100	A (“A” indicates an IC50 ratio greater than or equal to 30 fold)
COc1ncc(NC(=O)C(=O)N2C[C@@H](C)CC[C@@H]2c2ccc3sc([C@H]4CN(C)C(C)(C)C4)nc3c2)cc1C(N)=O [Compound 65, 2-methoxy-5-[[2-oxo-2-[(2R,5S)-5-methyl-2-[2-[(3R)-1,5,5-trimethylpyrrolidin-3-yl]-1,3-benzothiazol-5-yl]-1-piperidyl]acetyl]amino]pyridine-3-carboxamide]	> 50	< 5	< 75	< 100	B (“B” indicates an IC50 ratio greater than or equal to 15 fold but lower than 30 fold)
COc1ncc(NC(=O)C(=O)N2CCCC[C@@H]2c2ccc3sc(C4CCN(C)CC4)nc3c2)cc1C(N)=O [Compound 29, 2-methoxy-5-(2-(2-(2-(1-methylpiperidin-4-yl)benzo[d]thiazol-5-yl)piperidin-1-yl)-2-oxoacetamido)nicotinamide]	> 50	5 to 50	> 125	100 to 1000	A (“A” indicates an IC50 ratio greater than or equal to 30 fold)
COc1ncc(NC(=O)C(=O)N2C[C@@H](C)CC[C@@H]2c2ccc3sc([C@H](C)N(C)C)nc3c2)cc1C(N)=O [Compound 96, 2-methoxy-5-[[2-oxo-2-[(2R,5S)-5-methyl-2-[2-[(1S)-1-(dimethylamino)ethyl]-1,3-benzothiazol-5-yl]-1-piperidyl]acetyl]amino]pyridine-3-carboxamide]	> 50	5 to 50	75 to 125	< 100	A (“A” indicates an IC50 ratio greater than or equal to 30 fold)
COc1ncc(NC(=O)C(=O)N2C[C@@H](C)CC[C@@H]2c2ccc3ccc(N4CCN(C)CC4)nc3c2)cc1C(N)=O [Compound 126, 2-methoxy-5-(2-((2R,5S)-5-methyl-2-(2-(4-methylpiperazin-1-yl)quinolin-7-yl)piperidin-1-yl)-2-oxoacetamido)nicotinamide]	> 50	< 5	< 75	< 100	A (“A” indicates an IC50 ratio greater than or equal to 30 fold)
COc1ncc(NC(=O)C(=O)N2C[C@@H](C)CC[C@@H]2c2ccc3cc(C#N)c(C4CCN(C)CC4)nc3c2)cc1C(N)=O [Compound 113, 5-(2-((2R,5S)-2-(3-cyano-2-(1-methylpiperidin-4-yl)quinolin-7-yl)-5-methylpiperidin-1-yl)-2-oxoacetamido)-2-methoxynicotinamide]	> 50	< 5	< 75	< 100	A (“A” indicates an IC50 ratio greater than or equal to 30 fold)
CCc1cc(NC(=O)C(=O)N2C[C@@H](C)CC[C@@H]2c2ccc3sc(C[C@H]4CCN(C)C[C@@H]4C)nc3c2)cnc1N (racemic) [Compound 18, N-(6-amino-5-ethylpyridin-3-yl)-2-((2R,5S)-2-(2-((1,3-dimethylpiperidin-4-yl)methyl)benzo[d]thiazol-5-yl)-5-methylpiperidin-1-yl)-2-oxoacetamide]	5 to 50	< 5	< 75	< 100	A (“A” indicates an IC50 ratio greater than or equal to 30 fold)
CCc1cc(NC(=O)C(=O)N2C[C@@H](C)CC[C@@H]2c2ccc3c(c2)OC2(CCN(C)CC2)C3)cnc1N [Compound 31, N-(6-amino-5-ethylpyridin-3-yl)-2-((2R,5S)-5-methyl-2-(1′-methyl-3H-spiro[benzofuran-2,4′-piperidin]-6-yl)piperidin-1-yl)-2-oxoacetamide]	> 50	5 to 50	> 125	100 to 1000	A (“A” indicates an IC50 ratio greater than or equal to 30 fold)
CCc1cc(NC(=O)C(=O)N2C[C@@H](C)CC[C@@H]2c2ccc3sc(C4CN(C)CCN4C)nc3c2)cnc1N (mixture of isomers) [Compound 70, N-(6-amino-5-ethylpyridin-3-yl)-2-((2R,5S)-2-(2-(1,4-dimethylpiperazin-2-yl)benzo[d]thiazol-5-yl)-5-methylpiperidin-1-yl)-2-oxoacetamide]	> 50	5 to 50	< 75	< 100	B (“B” indicates an IC50 ratio greater than or equal to 15 fold but lower than 30 fold)
CCc1cc(NC(=O)C(=O)N2C[C@@H](C)CC[C@@H]2c2ccc3sc([C@H]4CN5CC[C@@H]4C5)nc3c2)cnc1N (racemic) [Compound 21, 2-((2R,5S)-2-(2-(1-azabicyclo[2.2.1]heptan-3-yl)benzo[d]thiazol-5-yl)-5-methylpiperidin-1-yl)-N-(6-amino-5-ethylpyridin-3-yl)-2-oxoacetamide]	5 to 50	< 5	< 75	< 100	C (“C” indicates an IC50 ratio of less than 15 fold)

Now from value to compound, other results behind:

IC50 [1] [nM]	IC50 [3] [nM]	IC90 [3] [nM]	Compound	IC50 [2] [nM]	Hap1 MTAP intact/deleted ratio [3]
> 50	< 5	< 75	CCc1cc(NC(=O)C(=O)N2C[C@@H](C)CC[C@@H]2c2ccc3cc(C#N)c(C4CCN(C)CC4)nc3c2)cnc1N [Compound 63, N-(6-amino-5-ethylpyridin-3-yl)-2-((2R,5S)-2-(3-cyano-2-(1-methylpiperidin-4-yl)quinolin-7-yl)-5-methylpiperidin-1-yl)-2-oxoacetamide]	< 100	A (“A” indicates an IC50 ratio greater than or equal to 30 fold)
5 to 50	< 5	< 75	CCc1cc(NC(=O)C(=O)N2C[C@@H](C)CC[C@@H]2c2ccc3cn(C4CCN(C)C(C)(C)C4)nc3c2)cnc1N (single isomer, unassigned) [Compound 48]	< 100	C (“C” indicates an IC50 ratio of less than 15 fold)
> 50	5 to 50	< 75	CCc1cc(NC(=O)C(=O)N2C[C@@H](C)CC[C@@H]2c2cccc(OCC3CCCN3C)c2)cnc1N (single isomer, unassigned) [Compound 121]	< 100	B (“B” indicates an IC50 ratio greater than or equal to 15 fold but lower than 30 fold)
> 50	< 5	< 75	COc1ncc(NC(=O)C(=O)N2C[C@@H](C)CC[C@@H]2c2ccc3sc([C@@H]4CCN(C)C[C@@H]4C)nc3c2)cc1C(N)=O (relative stereo) [Compound 12, 2-methoxy-5-[[2-oxo-2-[(2R,5S)-5-methyl-2-[2-[rel-(3R,4R)-1,3-dimethyl-4-piperidyl]-1,3-benzothiazol-5-yl]-1-piperidyl]acetyl]amino]pyridine-3-carboxamide]	< 100	A (“A” indicates an IC50 ratio greater than or equal to 30 fold)
> 50	5 to 50	75 to 125	CCc1cc(NC(=O)C(=O)N2CCCC[C@@H]2c2ccc3sc(C4CCN(C)CC4)nc3c2)cnc1N [Compound 73, N-(6-amino-5-ethylpyridin-3-yl)-2-(2-(2-(1-methylpiperidin-4-yl)benzo[d]thiazol-5-yl)piperidin-1-yl)-2-oxoacetamide]	100 to 1000	A (“A” indicates an IC50 ratio greater than or equal to 30 fold)
> 50	5 to 50	> 125	CCc1cc(NC(=O)C(=O)N2C[C@@H](C)CC[C@@H]2c2ccc3cc(C#N)cnc3c2)cnc1N [Compound 54]	100 to 1000	A (“A” indicates an IC50 ratio greater than or equal to 30 fold)
> 50	< 5	< 75	COc1ncc(NC(=O)C(=O)N2C[C@@H](C)CC[C@@H]2c2ccc3sc(C45CCC(CC4)N(C)C5)nc3c2)cc1C(N)=O [Compound 99, 2-methoxy-5-(2-((2R,5S)-5-methyl-2-(2-(2-methyl-2-azabicyclo[2.2.2]octan-4-yl)benzo[d]thiazol-5-yl)piperidin-1-yl)-2-oxoacetamido)nicotinamide]	< 100	A (“A” indicates an IC50 ratio greater than or equal to 30 fold)
